This is an account of results in patent US12202835B2, “Substituted aromatic ring-linked dioxinoquinazolines and dioxinoquinolines as kinase inhibitors” (BEIJING SCITECH-MQ PHARMACEUTICALS LIMITED, priority 2018, dated 2025).

One assay addresses TRKA kinase (Homo sapiens (Human), UniProt P04629). In words: Assay of small molecular compounds for inhibiting the activity of TRKA kinase (LANCE TR-FRET). It is filed as biochemical. In a few lines: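 LANCE TR-FRET with ULight-TK peptide; compounds pre-incubated 5 min with TRKA (2× solution 2 nM), then substrate/ATP added (4× mix: 400 nM peptide, 40 μM ATP). Reaction 60 min at room temperature in dark, 1% DMSO final; stopped, detection developed 60 min, signal read.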

A further assay has as its target VEGFR-2 kinase (Homo sapiens (Human), UniProt P35968). In words: Assay of small molecular compounds for inhibiting the activity of VEGFR-2 kinase (LANCE TR-FRET). It is filed as biochemical. The conditions noted are these: read-out: VEGFR2 IC50. An outline of the steps: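 LANCE TR-FRET with human VEGFR-2 (2× stock 0.5 nM) preincubated 30 min with compound (final 2500 to 0.042 nM, 11-point 3-fold), then ULight-JAK-1 (Tyr1023) peptide/ATP added (4× stocks 200 nM/40 μM). Reaction 60 min room temperature, 4% DMSO; IC50 from inhibition-rate curve.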

A value given as a limit tells only on which side of the number the result lay.

Chain of TRKA kinase (P04629 33-796): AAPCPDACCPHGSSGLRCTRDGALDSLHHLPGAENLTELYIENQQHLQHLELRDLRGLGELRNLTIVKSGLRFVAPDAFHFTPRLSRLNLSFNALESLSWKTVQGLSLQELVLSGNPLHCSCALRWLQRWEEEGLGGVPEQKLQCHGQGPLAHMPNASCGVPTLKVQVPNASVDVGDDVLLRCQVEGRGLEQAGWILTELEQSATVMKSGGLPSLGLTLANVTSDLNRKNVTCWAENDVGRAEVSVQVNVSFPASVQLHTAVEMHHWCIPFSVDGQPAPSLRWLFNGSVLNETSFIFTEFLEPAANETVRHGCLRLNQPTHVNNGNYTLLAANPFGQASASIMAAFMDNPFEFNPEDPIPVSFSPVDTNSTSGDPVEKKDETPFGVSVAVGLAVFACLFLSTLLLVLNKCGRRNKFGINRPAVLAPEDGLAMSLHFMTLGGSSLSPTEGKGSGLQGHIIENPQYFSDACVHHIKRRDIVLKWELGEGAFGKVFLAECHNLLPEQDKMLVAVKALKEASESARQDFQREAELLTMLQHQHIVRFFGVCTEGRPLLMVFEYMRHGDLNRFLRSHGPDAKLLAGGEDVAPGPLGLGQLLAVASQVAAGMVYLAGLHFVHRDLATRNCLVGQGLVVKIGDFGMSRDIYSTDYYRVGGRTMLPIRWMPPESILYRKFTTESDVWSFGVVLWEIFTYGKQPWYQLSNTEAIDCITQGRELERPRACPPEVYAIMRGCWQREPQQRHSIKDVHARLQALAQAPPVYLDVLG
Chain of VEGFR-2 kinase (P35968 20-1356): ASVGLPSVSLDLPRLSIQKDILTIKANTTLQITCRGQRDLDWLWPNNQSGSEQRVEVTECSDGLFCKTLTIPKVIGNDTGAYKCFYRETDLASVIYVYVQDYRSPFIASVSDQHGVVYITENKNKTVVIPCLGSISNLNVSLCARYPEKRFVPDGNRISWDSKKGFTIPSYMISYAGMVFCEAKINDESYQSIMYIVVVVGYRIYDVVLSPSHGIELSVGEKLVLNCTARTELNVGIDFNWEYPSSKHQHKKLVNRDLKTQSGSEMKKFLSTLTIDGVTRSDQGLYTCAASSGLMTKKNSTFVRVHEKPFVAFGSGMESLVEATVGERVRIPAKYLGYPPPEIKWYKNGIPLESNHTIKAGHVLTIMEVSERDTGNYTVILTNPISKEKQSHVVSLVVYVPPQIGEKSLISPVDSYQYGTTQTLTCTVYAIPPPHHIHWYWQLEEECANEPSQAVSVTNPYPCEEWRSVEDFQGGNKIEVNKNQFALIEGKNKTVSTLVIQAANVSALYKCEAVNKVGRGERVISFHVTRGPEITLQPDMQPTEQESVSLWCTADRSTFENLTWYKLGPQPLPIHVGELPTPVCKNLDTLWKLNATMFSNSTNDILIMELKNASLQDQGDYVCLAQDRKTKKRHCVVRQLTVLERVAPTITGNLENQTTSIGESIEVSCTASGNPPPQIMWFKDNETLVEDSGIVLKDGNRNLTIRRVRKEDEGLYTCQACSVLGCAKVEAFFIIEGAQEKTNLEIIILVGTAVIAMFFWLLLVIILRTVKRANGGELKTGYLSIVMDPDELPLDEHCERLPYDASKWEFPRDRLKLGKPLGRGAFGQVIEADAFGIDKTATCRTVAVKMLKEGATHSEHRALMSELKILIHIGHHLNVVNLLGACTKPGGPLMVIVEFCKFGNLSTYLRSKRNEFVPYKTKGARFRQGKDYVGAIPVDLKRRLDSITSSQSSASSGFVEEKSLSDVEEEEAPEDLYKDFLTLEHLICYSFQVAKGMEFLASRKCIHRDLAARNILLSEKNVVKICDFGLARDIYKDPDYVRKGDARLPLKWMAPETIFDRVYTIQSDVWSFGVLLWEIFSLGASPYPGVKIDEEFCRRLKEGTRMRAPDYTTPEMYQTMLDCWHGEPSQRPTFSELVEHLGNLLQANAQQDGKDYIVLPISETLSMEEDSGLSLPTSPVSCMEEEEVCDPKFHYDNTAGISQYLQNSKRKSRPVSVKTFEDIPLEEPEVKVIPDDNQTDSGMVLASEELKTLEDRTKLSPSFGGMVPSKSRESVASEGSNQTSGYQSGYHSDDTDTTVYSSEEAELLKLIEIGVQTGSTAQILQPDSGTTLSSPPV

Regarding `O=C(Nc1ccc(Oc2ccnc3ccc4c(c23)OCCO4)cc1F)c1cccn(-c2ccc(F)cc2)c1=O` [Example 170, N-(4-((2,3-dihydro-[1,4]dioxino[2,3-f]quinolin-10-yl)oxy)-2-fluorophenyl)-1-(4-fluorophenyl)-2-oxo-1,2-dihydropyridine-3-carboxamide], the IC50 was less than 50 nM against TRKA kinase and 500 to 5000 nM at VEGFR-2 kinase.

For the compound `COCCOc1cc2nccc(Oc3ccc(NC(=O)c4cn(C)c(=O)n(-c5ccc(F)cc5)c4=O)cc3)c2c2c1OCCO2` [Example 147, N-(4-((5-(2-methoxyethoxy)-2,3-dihydro-[1,4]dioxino[2,3-f]quinolin-10-yl)oxy)phenyl)-3-(4-fluorophenyl)-1-methyl-2,4-dioxo-1,2,3,4-tetrahydropyrimidine-5-carboxamide], the IC50 against TRKA kinase is less than 50 nM; on VEGFR-2 kinase, 50 to 500 nM.

As to `CCn1cc(C(=O)Nc2ccc(Oc3ccnc4cc(OC)c5c(c34)OCCO5)cc2)c(=O)n(-c2ccc(F)cc2)c1=O` [Example 146, N-(4-((5-methoxy-2,3-dihydro-[1,4]dioxino[2,3-f]quinolin-10-yl)oxy)phenyl)-3-(4-fluorophenyl)-1-ethyl-2,4-dioxo-1,2,3,4-tetrahydropyrimidine-5-carboxamide], the IC50 against TRKA kinase is less than 50 nM; on VEGFR-2 kinase it was greater than 5000 nM.

Consider `CCOc1cc2nccc(Oc3ccc(NC(=O)c4c(OC)ccn(-c5ccc(F)cc5)c4=O)c(Cl)c3)c2c2c1OCCO2` [Example 128, N-(2-chloro-4-((5-ethoxy-2,3-dihydro-[1,4]dioxino[2,3-f]quinolin-10-yl)oxy)phenyl)-1-(4-fluorophenyl)-4-methoxy-2-oxo-1,2-dihydropyridine-3-carboxamide], for which the IC50 against TRKA kinase is less than 50 nM; at VEGFR-2 kinase, 500 to 5000 nM.

On to `CCOc1cc2nccc(Oc3ccc(NC(=O)c4cccn(-c5ccc(F)cc5)c4=O)c(Cl)c3)c2c2c1OCCO2` [Example 127, N-(2-chloro-4-((5-ethoxy-2,3-dihydro-[1,4]dioxino[2,3-f]quinolin-10-yl)oxy)phenyl)-1-(4-fluorophenyl)-2-oxo-1,2-dihydropyridine-3-carboxamide], for which the IC50 on TRKA kinase is less than 50 nM; on VEGFR-2 kinase, 500 to 5000 nM.

Take `CCOc1cc2nccc(Oc3ccc(NC(=O)c4c(OCC)ccn(-c5ccc(F)cc5)c4=O)c(Cl)c3)c2c2c1OCCO2` [Example 130, N-(2-chloro-4-((5-ethoxy-2,3-dihydro-[1,4]dioxino[2,3-f]quinolin-10-yl)oxy)phenyl)-1-(4-fluorophenyl)-4-ethoxy-2-oxo-1,2-dihydropyridine-3-carboxamide]: the results for the IC50 at TRKA kinase and on VEGFR-2 kinase were less than 50 nM and 50 to 500 nM, respectively.

`Cn1cc(C(=O)Nc2ccc(Oc3ncnc4cc(OCCCN5CCOCC5)c5c(c34)OCCO5)c(F)c2)c(=O)n(-c2ccc(F)cc2)c1=O` [Example 30, N-(3-fluoro-4-((5-(3-morpholinopropoxy)-2,3-dihydro-[1,4]dioxino[2,3-f]quinazolin-10-yl)oxy)phenyl)-3-(4-fluorophenyl)-1-methyl-2,4-dioxo-1,2,3,4-tetrahydropyrimidine-5-carboxamide]: the values for the IC50 against TRKA kinase and on VEGFR-2 kinase were less than 50 nM and no more than 50 nM, respectively.

As to `CCOc1ccn(-c2ccc(F)cc2)c(=O)c1C(=O)Nc1ccc(Oc2ccnc3cc(OCCCN4CCCCC4)c4c(c23)OCCO4)cc1Cl` [Example 138, N-(2-chloro-4-((5-((3-piperidin-1-yl)propoxy)-2,3-dihydro-[1,4]dioxino[2,3-f]quinolin-10-yl)oxy)phenyl)-1-(4-fluorophenyl)-4-ethoxy-2-oxo-1,2-dihydropyridine-3-carboxamide], the IC50 against TRKA kinase is less than 50 nM; on VEGFR-2 kinase it was no more than 50 nM.

As for `COCCOc1cc2nccc(Oc3ccc(NC(=O)c4cn(C)c(=O)n(-c5ccc(F)cc5)c4=O)c(F)c3)c2c2c1OCCO2` [Example 155, N-(2-fluoro-4-((5-(2-methoxyethoxy)-2,3-dihydro-[1,4]dioxino[2,3-f]quinolin-10-yl)oxy)phenyl)-3-(4-fluorophenyl)-1-methyl-2,4-dioxo-1,2,3,4-tetrahydropyrimidine-5-carboxamide], the values for the IC50 at TRKA kinase and at VEGFR-2 kinase were less than 50 nM and 500 to 5000 nM, respectively.

As to `CCOc1ccn(-c2ccc(F)cc2)c(=O)c1C(=O)Nc1ccc(Oc2ccnc3ccc4c(c23)OCCO4)cc1F` [Example 171, N-(4-((2,3-dihydro-[1,4]dioxino[2,3-f]quinolin-10-yl)oxy)-2-fluorophenyl)-1-(4-fluorophenyl)-4-ethoxy-2-oxo-1,2-dihydropyridine-3-carboxamide], the IC50 was less than 50 nM against TRKA kinase and 500 to 5000 nM at VEGFR-2 kinase.

As to `COc1cc2ncnc(Oc3ccc(NC(=O)c4cn(C)c(=O)n(-c5ccc(F)cc5)c4=O)cc3F)c2c2c1OCCO2` [Example 29, N-(3-fluoro-4-((5-methoxy-2,3-dihydro-[1,4]dioxino[2,3-f]quinazolin-10-yl)oxy)phenyl)-3-(4-fluorophenyl)-1-methyl-2,4-dioxo-1,2,3,4-tetrahydropyrimidine-5-carboxamide], the values for the IC50 against TRKA kinase and on VEGFR-2 kinase were less than 50 nM and 500 to 5000 nM, respectively.

Regarding `CC(C)n1cc(C(=O)Nc2ccc(Oc3ccnc4cc(OCCCN5CCOCC5)c5c(c34)OCCO5)c(Cl)c2)c(=O)n(-c2ccc(F)cc2)c1=O` [Example 97, N-(3-chloro-4-((5-(3-morpholinopropoxy)-2,3-dihydro-[1,4]dioxino[2,3-f]quinolin-10-yl)oxy)phenyl)-3-(4-fluorophenyl)-1-isopropyl-2,4-dioxo-1,2,3,4-tetrahydropyrimidine-5-carboxamide], the values for the IC50 against TRKA kinase and at VEGFR-2 kinase were less than 50 nM and 500 to 5000 nM, respectively.

Turning to `CCOc1ccn(-c2ccc(F)cc2)c(=O)c1C(=O)Nc1ccc(Oc2ncnc3cc(OCCCN4CCOCC4)c4c(c23)OCCO4)c(F)c1` [Example 6, N-(3-fluoro-4-((5-(3-morpholinopropoxy)-2,3-dihydro-[1,4]dioxino[2,3-f]quinazolin-10-yl)oxy)phenyl)-1-(4-fluorophenyl)-4-ethoxy-2-oxo-1,2-dihydropyridine-3-carboxamide], the IC50 against TRKA kinase was less than 50 nM; on VEGFR-2 kinase it was 50 to 500 nM.

As to `CCn1cc(C(=O)Nc2ccc(Oc3ccnc4cc(OCC(C)(C)O)c5c(c34)OCCO5)cc2)c(=O)n(-c2ccc(F)cc2)c1=O` [Example 150, N-(4-((5-(2-hydroxy-2-methylpropoxy)-2,3-dihydro-[1,4]dioxino[2,3-f]quinolin-10-yl)oxy)phenyl)-3-(4-fluorophenyl)-1-ethyl-2,4-dioxo-1,2,3,4-tetrahydropyrimidine-5-carboxamide], the values for the IC50 against TRKA kinase and on VEGFR-2 kinase were less than 50 nM and 500 to 5000 nM, respectively.

Turning to `CCn1cc(C(=O)Nc2ccc(Oc3ccnc4cc(OCCOC)c5c(c34)OCCO5)cc2F)c(=O)n(-c2ccc(F)cc2)c1=O` [Example 156, N-(2-fluoro-4-((5-(2-methoxyethoxy)-2,3-dihydro-[1,4]dioxino[2,3-f]quinolin-10-yl)oxy)phenyl)-3-(4-fluorophenyl)-1-ethyl-2,4-dioxo-1,2,3,4-tetrahydropyrimidine-5-carboxamide], the values for the IC50 on TRKA kinase and on VEGFR-2 kinase were less than 50 nM and 500 to 5000 nM, respectively.

`COc1cc2nccc(Oc3ccc(NC(=O)c4cn(C)c(=O)n(-c5ccc(F)cc5)c4=O)c(Cl)c3)c2c2c1OCCO2` [Example 125, N-(2-chloro-4-((5-methoxy-2,3-dihydro-[1,4]dioxino[2,3-f]quinolin-10-yl)oxy)phenyl)-3-(4-fluorophenyl)-1-methyl-2,4-dioxo-1,2,3,4-tetrahydropyrimidine-5-carboxamide] yielded an IC50 on TRKA kinase of less than 50 nM.

As a reminder, the IC50 is the point on the concentration scale where inhibition reaches its midpoint.
